This is an account of results in patent US20250346634A1, “CYCLIC PEPTIDES FOR TARGETING EPIDERMAL GROWTH FACTOR RECEPTOR AND MUTATIONS THEREOF FOR DRUG DELIVERY” (priority 2022, published 2025).

In general, IC50 refers to the concentration that gives 50% inhibition. The low end stands for higher potency, the high end for lower potency. By half-life is commonly meant the time needed for the level to fall by half in the phase considered.

Read-outs that look alike come from different tables or passages of the source. Bridge positions count the residues as written; N and C are the ends. Square brackets hold non-standard residues; d marks the D form. Peptide text beside a SMILES is read from it. * marks the point of attachment. ξ: configuration not given here. Camptothecin(20S-OCO) = CC[C@@]1(OC(=O)*)C(=O)OCc2c1cc1n(c2=O)Cc2cc3ccccc3nc2-1; FITC = O=C1OC2(c3ccc(O)cc3Oc3cc(O)ccc32)c2ccc(NC(=S)*)cc21; ξThr(3R) = C[C@@H](O)C(N)C(=O)O; Abu = CC[C@H](N)C(=O)O; GABA = NCCCC(=O)O

The subject of data set [1] is H1299, H1975 and DKMG cells. Description: Phage display biopanning with NGS, selection of EGFR-specific peptides. It counts as cell-based. The conditions noted are these: 3 rounds of biopanning, K562-derived sequences excluded. The procedure:
A heptapeptide phage display library (Ph.D.-C7C Phage Display Library Kit, New England Biolabs, USA) was used for the in vitro biopanning experiments. All cell lines were individually incubated with phages from the stock library. […] Adherent cells (H1299, […] and DKMG) were plated at a density of 10^5 cells/ml in a 6-well plate. When the culture reached 80% confluence, the first well was incubated with phage library (10^11 pfu/10 μl) for 1 h at 37° C. with gentle stirring. The medium containing unbound phage was collected and transferred to the second, similar well and incubated again. The procedure was repeated with the third well. Cells in the third wells were washed four times with 0.5% Tween-20 in PBS. Then, 0.5 ml of elution buffer (0.2 M glycine-HCl, pH 2.2) was added and incubated for 10 min at 4° C.; the pH was neutralized by addition of 75 μl of 1 M Tris-HCl buffer, pH 9.0. The supernatant containing cell surface binding phage was collected. The cells were then lysed by incubation for 1 h at 4° C. with 2 ml of 30 mM Tris-HCl and 1 mM EDTA, pH 8.0. The medium was collected and centrifuged at 1,500 rpm for 5 min and the supernatant containing cell-internalized phage was transferred to a new tube. The internalized and surface-bound phages were amplified according to the manufacturer's instructions. An aliquot of the phages was retained for sequencing (see below) and the remainder was subjected to two additional rounds of biopanning. […]
Finally, two groups of peptides were constructed; the first included sequences that were present in all three EGFR+ve cell lines and included about 416 sequences; the second was divided into three subgroups, one for each cell line, wherein the subgroup for H1299 included some 1666 sequences, the subgroup for H1975 included some 10437 sequences, the subgroup for DKMG included some 981 sequences. From this list, top eleven S—S bridged cyclic peptides sequences were selected by their count in the sequencing data (the highest number of reads). […]

For a further data set, the system named is H1299 cells. The data set is described as follows: XTT cytotoxicity assay on H1299 cells. It counts as cell-based. The procedure: (§1) Cell growth in the presence of PDCs was measured by a commercial XTT assay kit (Cell Proliferation Kit, XTT based; Biological Industries, Israel). The cells (10^4 cells/well) were seeded in 96 well plates and incubated overnight in complete growth medium. The cells were washed and then cultured in 100 μl of new medium containing various concentrations of drug or peptides, for 24 h, 48 h, and 72 h. The XTT solution was added to each well and the plate was further incubated 2-3 h at 37° C. The optical density in the wells was measured at both 480 nm and 680 nm using a TECAN Infinite M200 ELISA reader. All the tests were done in triplicates, and each experiment was repeated three times.
(§2) The cytotoxicity of the Peptide-Drug conjugates (PDCs) was tested in a range of concentrations (0.5-50 μM) against H1299 and DKMG cells using two protocols. In the first protocol, cells were pre-incubated with P6, P9, P6-CPT, and P9-CPT for 6 hours, the medium was removed, and a fresh, drug-free complete medium was added for additional 24 h (designated as 6h24h) or 48 h (6h48h). In the second protocol, cells were exposed continuously to PDCs for 24 h, 48 h, and 72 hours.

Data set [2] can be described thus: Stability of peptide-drug conjugates in complete growth medium (LC-MS). It counts as in vitro ADME. To be noted: RPMI and DMEM complete growth medium, 37° C., read-out: half-life of degradation. The procedure: At each time point, 10 μl of sample was taken and mixed with 25 μl ACN/H2O (1:1, v.v.). The samples were centrifuged at 1,400 rpm for 15 min. Supernatants were collected, filtered and analyzed by liquid chromatography mass spectrometry (LC-MS).
The stability of P6-CPT and P9-CPT was measured in RPMI and DMEM complete growth medium at 37° C. for 0 h, 0.5 h, 3 h, 7 h, 24 h, 48, and 72 h. The degradation of the conjugates and the CPT release was analyzed by LC-MS. The stability of these conjugates and drug release rates were similar.

The next data set has as its system DKMG cells. The data set is described as follows: XTT cytotoxicity assay on DKMG cells. It counts as cell-based. The procedure: as §1, §2
For data set [3], the system named is H1299, DKMG and K562 cells. Description: Flow cytometry binding of peptide-FITC conjugates. In kind it is cell-based. The conditions noted are these: 2.5 μM FITC-labeled peptide. Background: In flow cytometry, cells or beads pass a laser one at a time.
Description: Cells with 80-90% confluence were incubated with 2.5 μM FITC-conjugated peptides in RPMI-5% FBS for 1 h at 37° C. Cells were scrapped from the culture flask and washed twice with 2 ml FCSB.
This concentration was chosen based on preliminary dose dependence study.
Data set [4] has as its system EGFR+ve cells (H1299, DKMG) versus K562 cells. Description: Flow cytometry internalization of peptide-FITC conjugates. In kind it is cell-based. The conditions noted are these: 2.5 μM FITC-labeled peptide. The text has this: Analysis was done with FACS cell analyzer.
Data set [5] has as its system H1299 tumor (EGFR positive) versus K562 tumor (EGFR negative). Description: In vivo targeting in mice with dual H1299 and K562 xenografts. To be noted: nude mice, tail vein, 100 μg.
Description: Animal protocols were approved by the Institutional Animal Care and Use Committee at Ariel university Israel. Nude mice were injected with either H1299 cells in the right flank and with K562 cells in the left flank, so that each mouse bore either dual H1299 and K562 xenografts. When tumors reached, 100 mm^3 mice were injected via tail vein with 100 μg of FITC-labeled cyclic peptide, according to some embodiments of the present invention, and imaged using IVIS® SpectrumCT 8- and 24-hours post injection. Immediately afterwards, the mice were sacrificed for ex vivo imaging of organs.
Signal from the targeted tumor compared to other tissues was determined for each animal.
The target of data set [6] is T1, EGFR variant III (EGFRvIII), on DKMG glioblastoma cells (human, UniProt P00533 25-1210).
T1 construct: whole, on cells; DKMG cells express both wild type EGFR (92% of cells) and EGFRvIII (82%); All results on DKMG cells are written against this molecule; also called EGFR mutant; EGFRVIII DKMG
Description: flow cytometry, 2.5 uM FITC-peptide on DKMG cells (EGFR WT and EGFRvIII).

Data set [7] concerns the target T2, epidermal growth factor receptor (EGFR), wild type (human, UniProt P00533 25-1210).
T2 construct: whole, on cells; The target is inferred from tumour cell lines that overexpress EGFR, compared with EGFR-negative cells; No purified receptor was used; also called EGFRWT; EGFR WT
Description: confocal microscopy, 25 uM FITC-peptide, 3 h, H1299 cells.

Where [8] appears, read: H1299, 6 w 48 h (6 h pre-incubation, then 48 h drug-free medium).
Where [9] appears, read: H1299, 24 h continuous exposure.
Where [10] appears, read: H1299, 48 h continuous exposure.
Setting [11] is: H1299, first protocol (6 h pre-incubation), up to 48 h.
Where [12] appears, read: H1299, second protocol, continuous exposure.
The mark [13] stands for this setting: H1299, 72 h continuous exposure.

Turning to `C[C@@H]1NC(=O)[C@@H](N)CSSC[C@@H](C(N)=O)NC(=O)[C@H](CCCNC(=N)N)NC(=O)CNC(=O)[C@@H]2CCCN2C(=O)[C@H]([C@@H](C)O)NC(=O)[C@H](Cc2ccc(O)cc2)NC(=O)[C@H](CCC(N)=O)NC1=O` [Peptide P11] (H-CAQYTPGRC-NH2; disulfide 1-9), the “Cell line (peptide specificity per cell line; source of the cells from which the peptide was identified)” value in data set [1] is listed as “DKMG”.

Take `CC[C@H](C)[C@@H]1NC(=O)[C@H](Cc2ccc(O)cc2)NC(=O)[C@H](CO)NC(=O)CNC(=O)[C@@H]2CCCN2C(=O)[C@H](C(C)C)NC(=O)[C@H](Cc2cnc[nH]2)NC(=O)[C@@H](NC(=O)CCCNC(=O)O[C@]2(CC)C(=O)OCc3c2cc2n(c3=O)Cc3cc4ccccc4nc3-2)CSSC[C@@H](C(N)=O)NC1=O` [Peptide P6-CPT] ({Camptothecin(20S-OCO)-GABA}-CHVPGSYIC-NH2; disulfide 1-9): the figures for the IC50 in the data set on H1299 cells (setting [8]), in the data set on H1299 cells (setting [9]) and with H1299 cells (setting [10]) were 32 µM, 14.5 µM and 5.5 µM, respectively. In addition, the cytotoxicity result was “exhibited cytotoxic effect after 48 h” with H1299 cells (setting [11]) and “observed after 24 hours post exposure” in the data set with H1299 cells (setting [12]). In addition, the half-life in data set [2] is 6 to 7 h.

In the case of `CC(C)C[C@@H]1NC(=O)[C@H](Cc2c[nH]c3ccccc23)NC(=O)[C@H](CC(N)=O)NC(=O)[C@@H](N)CSSC[C@@H](C(N)=O)NC(=O)[C@H](CCC(=O)O)NC(=O)C([C@@H](C)O)NC(=O)[C@H](CCCNC(=N)N)NC(=O)[C@H](CO)NC1=O` (stereo partly drawn) [Peptide P10] (H-CNWLSR[ξThr(3R)]EC-NH2; disulfide 1-9), the “Cell line (peptide specificity per cell line; source of the cells from which the peptide was identified)” value in [1] is reported as “DKMG”.

Regarding `CSCC[C@@H]1NC(=O)[C@H](C)NC(=O)[C@H](CC(N)=O)NC(=O)[C@H](C(C)C)NC(=O)[C@@H](N)CSSC[C@@H](C(N)=O)NC(=O)[C@H](Cc2ccc(O)cc2)NC(=O)[C@H](CO)NC(=O)[C@H](CCC(N)=O)NC1=O` [Peptide P9] (H-CVNAMQSYC-NH2; disulfide 1-9), the cytotoxicity result in the data set with H1299 cells is reported as “did not demonstrate cytotoxicity”. Further, the IC50 in the data set on H1299 cells (setting [9]) was determined as 22.3 ± 0.2 µM; in the data set on H1299 cells (setting [10]), 27.3 ± 1.7 µM; in the data set on H1299 cells (setting [13]), 22.5 µM; in the data set with DKMG cells (24 h continuous exposure) it was 16.4 ± 1.9 µM; in the data set on DKMG cells (48 h continuous exposure), 17.5 ± 2.3 µM; with DKMG cells (72 h continuous exposure) it was 17.5 ± 1.6 µM. In addition, in data set [1], the “Cell line (peptide specificity per cell line; source of the cells from which the peptide was identified)” value was “DKMG”.

With `CC[C@@H]1NC(=O)[C@@H](NC(=O)CCCNC(=O)O[C@]2(CC)C(=O)OCc3c2cc2n(c3=O)Cc3cc4ccccc4nc3-2)CSSC[C@@H](C(N)=O)NC(=O)[C@H](Cc2ccc(O)cc2)NC(=O)[C@H](CO)NC(=O)[C@H](CCC(N)=O)NC(=O)[C@H](CCSC)NC(=O)[C@H](C)NC(=O)[C@H](CC(N)=O)NC1=O` [Peptide P9-CPT] ({Camptothecin(20S-OCO)-GABA}-C[Abu]NAMQSYC-NH2; disulfide 1-9), the IC50 in the data set on H1299 cells (setting [8]) is 21.5 ± 2.1 µM; in the data set with H1299 cells (setting [9]), 8.4 ± 0.5 µM; in the data set with H1299 cells (setting [10]) it was 2.2 ± 0.3 µM; with H1299 cells (setting [13]), 1.2 ± 0.1 µM; in the data set with DKMG cells (6 w 48 h (6 h pre-incubation, then 48 h drug-free medium)), 32 ± 1.6 µM; with DKMG cells (24 h continuous exposure), 6.76 µM. The IC50 in the data set with DKMG cells (48 h continuous exposure) came to 2.7 ± 1 µM; with DKMG cells (72 h continuous exposure), 0.2 ± 0.1 µM. The cytotoxicity result in the data set on H1299 cells (setting [11]) is listed as “exhibited cytotoxic effect after 48 h”; with H1299 cells (setting [12]), “observed after 24 hours post exposure”. For the same molecule, the half-life in data set [2] was in the range of 6 to 7 h. In the data set with DKMG cells (first protocol), the cytotoxic effect result is “noted after 48 hours”. Further, the “IC50 concentration higher compared to the free CPT” value with DKMG cells (first protocol, 48 hours) was found to be 4 fold.

For `C[C@@H]1NC(=O)[C@@H](NC(=O)CCCNC(=S)Nc2ccc3c(c2)C(=O)OC32c3ccc(O)cc3Oc3cc(O)ccc32)CSSC[C@@H](C(N)=O)NC(=O)[C@H](CCCNC(=N)N)NC(=O)CNC(=O)[C@@H]2CCCN2C(=O)[C@H]([C@@H](C)O)NC(=O)[C@H](Cc2ccc(O)cc2)NC(=O)[C@H](CCC(N)=O)NC1=O` [FITC-labeled P11] ({FITC-GABA}-CAQYTPGRC-NH2; disulfide 1-9), the “binding (flow cytometry)” value in data set [3] is “bind to H1299 and DKMG selectively but not to K562 cells”. For the same molecule, the “internalization (flow cytometry)” value in data set [4] is listed as “internalized only into to EGFR+ve cells”. Moreover, in [5] (ex vivo imaging of organs), the “accumulation in other organs” value is “No significant accumulation”. Besides, in data set [5] (imaging 8 and 24 hours post injection), the tumor accumulation result is listed as “accumulates in the H1299 tumor compared to the K562 tumor”.

B1: FITC-labeled cyclic peptide P6, c(CHVPGSYIC) (peptide)
peptide: {FITC-GABA}-CHVPGSYIC-NH2
modifications: disulfide 1-9
SMILES: CC[C@H](C)[C@@H]1NC(=O)[C@H](Cc2ccc(O)cc2)NC(=O)[C@H](CO)NC(=O)CNC(=O)[C@@H]2CCCN2C(=O)[C@H](C(C)C)NC(=O)[C@H](Cc2c[nH]cn2)NC(=O)[C@@H](NC(=O)CCCNC(=S)Nc2ccc3c(c2)C(=O)OC32c3ccc(O)cc3Oc3cc(O)ccc32)CSSC[C@@H](C(N)=O)NC1=O
notes: also called FITC-P6; P6-FITC conjugate
On to B1, for which the binding result in data set [6] and in data set [7] was “binds” in each case.
